Columns and labels:
[1] = Dog Hepatocyte Stability Assay; type: in vitro ADME; conditions: beagle, cryopreserved hepatocytes
Protocol: (§1) The metabolic stability of Compound 1 was evaluated using cryopreserved hepatocytes from mice, rats, dogs, cynomolgus monkeys, and humans.
(§2) 50 μL of 1 mM intermediate solutions for each test compound was prepared by adding 5 μL of 10 mM stock solution to 45 μL of a 1:1 mixture of water and acetonitrile. A 2 μM working stocks for each test compound were prepared in incubation media, InvitroGRO™ KHB (Bio IVT, Westbury, NY, USA), by adding 2 μL of 1 mM intermediate stock to 998 μL of incubation media.
(§3) To thaw the hepatocytes, InvitroGRO™ HT thawing medium (BioIVT, Westbury, NY, USA) was prewarmed to 37° C., and 48 mL of warmed thawing medium was transferred to a sterile 50 mL conical tube. The hepatocyte vial was removed from the liquid nitrogen Dewar, and gently thawed in a water bath at 37° C. for 1-2 minutes, then the contents of the vial were emptied into a conical tube with prewarmed InvitroGRO HT medium. 1 mL of prewarmed InvitroGRO HT medium was added to each emptied hepatocyte vial to resuspend any remaining cells, and the contents were pipetted into the hepatocyte suspension. The tube containing the hepatocyte suspension was centrifuged at 50*g for 5 minutes. The supernatant was removed carefully, and the remaining pellet was resuspended by adding 1 mL of incubation media, InvitroGRO KHB, and gently shaking until there were no clumps.
(§4) Cell viability was determined using the trypan blue method. 25 μL of hepatocyte cell suspension was added to a trypan blue (TB) solution (containing 775 μL InvitroGRO KHB and 200 μL of Trypan Blue). Cell count was taken using a hemacytometer.
(§5) For mouse hepatocytes, 200 μL of hepatocytes (0.8×10^6 cells/mL) were added to the wells of a 48 well plate (Catalog No. 92048, TPP Techno Plastic Products AG, Trasadingen, Switzerland) and pre-incubated for 30 minutes at 37° C. For rat, dog, monkey, […], 200 μL of hepatocytes (2×10^6 cells/mL) were added to the wells of a 48 well plate (Catalog No. 92048, TPP Techno Plastic Products AG, Trasadingen, Switzerland) and pre-incubated for 30 minutes at 37° C.
(§6) For all species of hepatocytes, once the pre-incubation period was complete, 200 μL of 2 μM working stock of test compound was added to the wells of the plate, and the plate was vortexed on a Vibramax™ 100 (P/N 544-21200-00, Heidolph Instruments GmbH & Co. KG, Schwabach, Germany) at 500 rpm in a 37° C. CO2 incubator (Model No. 51026280, ThermoFisher Scientific, Waltham, MA, USA). At each time point of 0, 15, 30, 60, 90, and 120 minutes, 50 μL of incubation mixture was precipitated with 200 μL of acetonitrile containing internal standard.
(§7) At the end of the experiment, the samples were centrifuged at 4000 rpm for 10 minutes. […]

[2] = test system: cryopreserved hepatocytes from beagle dogs; assay: Dog Hepatocyte Stability Assay; type: in vitro ADME
Protocol: as §1, §2, §3, §4, §5, §6, §7

[3] = Monkey Hepatocyte Stability Assay; type: in vitro ADME, cynomolgus monkey; conditions: cryopreserved hepatocytes
Protocol: as §1, §2, §3, §4, §5, §6, §7

[4] = test system: cryopreserved hepatocytes from cynomolgus monkeys; assay: Monkey Hepatocyte Stability Assay; type: in vitro ADME, cynomolgus monkey
Protocol: as §1, §2, §3, §4, §5, §6, §7

## COc1cc(-c2cn(C)c(=O)c(C)c2C)cc(OC)c1CN1CC[C@H](N2CCN(c3ccc(N[C@H]4CCC(=O)NC4=O)cc3F)CC2)C(F)(F)C1 [Compound 1, (S)-3-((4-(4-((S)-1-(2,6-dimethoxy-4-(1,4,5-trimethyl-6-oxo-1,6-dihydropyridin-3-yl)benzyl)-3,3-difluoropiperidin-4-yl)piperazin-1-yl)-3-fluorophenyl)amino)-piperidine-2,6-dione]
[1]
  half-life at 1 µM: > 120 min
[1]; read-out: CL int cells
  hepatocyte CLint at 1 µM: 1.49 µL/min/1e6 cells
[2]
  CLh int in vivo: 11.48 mL/min/Kg body wt.
  CLhb scaled well stirred: 8.6 mL/min/kg body wt.
[3]
  half-life at 1 µM: 44.2 min
[3]; read-out: CL int cells
  hepatocyte CLint at 1 µM: 15.7 µL/min/1e6 cells
[3]; read-out: CL int in vivo
  CLint scaled at 1 µM: 56.5 mL/min/kg
[4]
  CLhb scaled well stirred: 24.7 mL/min/kg body wt.

Source: patent US20240245677A1, “SELECTED COMPOUNDS FOR TARGETED DEGRADATION OF BRD9” (C4 THERAPEUTICS, INC., priority 2021, published 2024)
